Test results taken from patent publication US5658888A, “Erythromycin derivatives” (Chugai Seiyaku Kabushiki Kaisha, priority 1992, dated 1997).
Where two headings read alike, the source gives them in different places.

Experiments:
[1] = acid resistance / decomposition by acid; assay type: physicochemical; conditions: compared with EM-523 / publicly known erythromycin derivatives
Description: (§1) From a killed rabbit was removed the duodenum, of which the mucous membrane was detached from the tunica muscularis and then homogenized in a 50 mM Tris solution (pH 7.4) to prepare a protein solution. Twenty-five pM of ^125 I-labelled motilin (purchased from Ohtsuka Assay Laboratory) and the protein solution were incubated at 25° C. for 120 minutes, after which the radioactivity of the protein was measured with a γ-ray counter, the difference between the radioactivity observed in the case of non-addition of motilin and that observed in the case of addition of an excess (1×10^-7 m) of motilin being defined as the specific binding capacity. The efficacies of the samples were expressed as IC50 (M), the concentration of each of the test drugs which reduces the specific binding capacity to 50%. The test drug was dissolved in a DMSO solution and added to the protein solution (the final DMSO concentration:1%). In experiments on investigation of the acid resistance, the test drug was dissolved in a hydrochloric acid solution (pH 2.5) which was then allowed to stand at room temperature for 120 minutes prior to its addition to the protein solution for the experiments.

motilin receptor = target: T1, motilin receptor (Oryctolagus cuniculus, UniProt G1T803); experiment: motilin receptor binding test (displacement of 125I-labelled motilin); parameters: species or system rabbit; conditions: for activity in the hydrochloric acid solution compared with that in the DMSO solution: HCl pH 2.5, 120 min vs. DMSO
T1 construct: From a killed rabbit was removed the duodenum; from tissue; host or cells: rabbit duodenum homogenate (mucous membrane detached from the tunica muscularis, homogenized in 50 mM Tris pH 7.4)
Description: A motilin receptor binding test was conducted in the manner described hereunder [V. Bormans, et al., Regul. Peptides, 15, 143 (1986)].
as §1

[2] = tested on: gastric antrum contractile motility; experiment: gastrointestinal motility of the conscious dog (force transducers, intragastric administration); assay type: in vivo, Beagle dog; conditions: for ED (MI=150): Canis lupus familiaris, po, conscious dog, interdigestive state, gastric antrum, read-out: MI150 (test drug dosage required to provide MI=150); for gastrointestinal contractile activity (in words): administered into the stomach
Description: The gastrointestinal motility of the conscious dog was measured according to the method described previously [Itoh, Zen, Journal of the Smooth Muscle Research, 13, 33 (1976)]. Beagle dogs weighing approximately 10 kg were anesthetized with an intravenously (i.v.) injection of pentobarbital sodium and the abdominal cavity was opened under aseptic conditions. Extraluminal force transducers were sutured onto the serosa of the gastric antrum (stomach), duodenum and jejunum in a manner to measure circular muscle contraction. In addition, a Silastic tube [French, size 6.5, Dow Corning, Midland, Mich., U.S.A.) was placed into the stomach for direct administration of test drugs into the stomach. The lead wires of these force transducers and a Silastic tube were led out of the abdominal cavity and through a skin incision made between the scapulae. After the operation, the dogs were housed in individual experimental cages and given commercial dog food once a day.
The gastrointestinal motor activity was recorded on a thermal pen-writing recorder (WR-3101, Graphtec, Tokyo, Japan) by connecting the lead wires of the transducers to the connecting cables from the amplifiers (UG-5, Nihon Kohden, Tokyo, Japan). About 2 weeks postoperatively, gastrointestinal contractile activity could be divided into two main patterns of activity, interdigestive and digestive state. In the interdigestive state, IMC (interdigestive migrating contractions) were seen to occur at regular intervals of 100-120 minutes in the gastric antrum and migrated through the duodenum and jejunum at a constant velocity. In all animals, feeding disrupted the regular IMC pattern. Experiments were carried out during interdigestive state. The test drug was directly injected into the stomach through a Silastic tube placed in the stomach in a volume of 3 ml, 15 min after the end of the IMC in the gastric antrum. Test drugs were dissolved in ethanol, and then diluted with 0.9% physiological saline.
To measure motility quantitatively, the signals from the gastric antrum were relayed to a personal computer (PC-9801, NEC, Tokyo, Japan) every 100 ms. The area surrounded by the contraction waves and the base line, i.e., the product of the amplitude (voltage) and the time in minutes during a certain fixed period, was calculated, expressed as percent of the area assuming that maximum contraction (amplitude) of the interdigestive migrating contraction lasted for 1 min, and used as the motor index (MI) [Inatomi et al., J. Pharmacol. Exp. Ther. 251, 707 (1989)]. The MI, which is calculated in this manner, of the naturally occurred in the gastric antrum is about 100-200. Therefore, the test drug dosage required to provide MI=150 was defined to be MI150 which was used as the index of the stimulating effects or the gastric motility of test drugs.

[3] = background statement; cited from earlier work

T1 sequence (G1T803 1-400): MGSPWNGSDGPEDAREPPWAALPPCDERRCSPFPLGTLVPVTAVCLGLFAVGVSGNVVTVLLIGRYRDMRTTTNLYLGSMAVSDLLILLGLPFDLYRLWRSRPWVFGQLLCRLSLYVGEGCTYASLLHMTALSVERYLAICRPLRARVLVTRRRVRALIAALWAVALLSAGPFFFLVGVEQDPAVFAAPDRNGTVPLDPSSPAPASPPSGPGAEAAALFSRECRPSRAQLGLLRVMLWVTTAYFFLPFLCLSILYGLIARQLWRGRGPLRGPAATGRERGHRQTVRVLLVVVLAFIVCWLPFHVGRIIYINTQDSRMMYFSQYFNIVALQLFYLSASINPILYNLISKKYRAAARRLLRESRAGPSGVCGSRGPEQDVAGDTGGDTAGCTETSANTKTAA

SMILES | decomposition by acid (in words) [1] | level of activity in DMSO solution (comparison of Compound 6 and EM-523) (motilin receptor) | activity in the hydrochloric acid solution compared with that in the DMSO solution (motilin receptor) | IC50 (motilin receptor; test drug in DMSO solution (final DMSO 1%), rabbit duodenum, 25 pM 125I-motilin, 25° C., 120 min, pH 7.4, read-out: IC50, Solution in DMSO) [nM] | IC50 (motilin receptor; test drug stood in hydrochloric acid solution (pH 2.5) at room temperature for 120 minutes before the assay, read-out: IC50, Solution in HCl) [nM] | ED (MI=150) ([2]; intragastric) [µg/kg] | gastrointestinal contractile activity (in words) [2] | contractile activity in the gastric antrum relative to EM-523 ([2]; intragastric, ratio of potency to EM-523) | stability in the presence of an acid (in words) [3]
CC[C@H]1OC(=O)[C@H](C)[C@@H](O[C@H]2C[C@@](C)(OC)[C@@H](O)[C@H](C)O2)[C@H](C)[C@@H](O[C@@H]2O[C@H](C)C[C@H](N(C)C(C)C)[C@H]2O)[C@@]2(C)CC(C)=C(O2)[C@H](C)C(=O)[C@]1(C)OC [Compound 6, isopropyl-nor-12-O-methyl-11-oxo-8,9-anhydroerythromycin A 6,9-hemiketal] | less decomposable with an acid than is EM-523 | the same level of activity | differing little from the value in the DMSO solution | 4.1 | 9.1 | 3.8 | increased gastrointestinal contractile activity | about 4 times | –
CC[C@H]1OC(=O)[C@H](C)[C@@H](O[C@H]2C[C@@](C)(OC)[C@@H](O)[C@H](C)O2)[C@H](C)[C@@H](O[C@@H]2O[C@H](C)C[C@H](N(C)CC)[C@H]2O)[C@@]2(C)CC(C)=C(O2)[C@H](C)[C@@H](O)[C@]1(C)O [EM-523, reference compound] | – | the same level of activity | a decrease in the activity to one-100th that in the DMSO solution | – | – | 14.6 | increased gastrointestinal contractile activity | – | unstable in the presence of an acid
